Measurements taken from US7109338B2, “1,2-disubstituted 1,4-dihydro-4-oxoquinoline compounds” (priority 1999, dated 2006).
Values after ≈ are worked out from the molar mass of the structure shown.

Tests used:
[1] = test system: Poliovirus type 1 (Polio 1, Sabin); experiment: microbe, parasite or virus in culture; type: cell-based
[2] = test system: echovirus type 11 (Echo 11, Gregory); experiment: In vitro anti-picornavirus activity (MTT), Echo 11; type: cell-based; details: HeLa-S3 cells, MTT method, 37° C.
[3] = test system: coxsackievirus type A7 (CA7); experiment: In vitro anti-picornavirus activity (MTT), CA7; type: cell-based; details: HeLa-S3 cells, MTT method, 37° C.
[4] = test system: coxsackievirus type B4 (CB4,JVB); experiment: In vitro anti-picornavirus activity (MTT), CB4; type: cell-based; details: HeLa cells, MTT method, 37° C.
[5] = test system: human rhinovirus type 1B (HRV 1B, B632); experiment: Anti-rhinovirus activity (MTT), HRV1B; type: cell-based; details: HeLa (Ohio strain) cells, MTT method, 33° C.
HRV 2 (HGP) = experiment: Anti-rhinovirus activity (MTT), HRV2; type: cell-based, human rhinovirus; details: HeLa (Ohio strain) cells, MTT method, 33° C.
HRV 89 (41617-Gallo) = experiment: Anti-rhinovirus activity (MTT), HRV89; type: cell-based, human rhinovirus; details: HeLa (Ohio strain) cells, MTT method, 33° C.
HeLa cells = experiment: Cytotoxicity (MTT, without virus), HeLa; details: HeLa, no virus, incubated for 4 days
HeLa-S3 cells = experiment: Cytotoxicity (MTT, without virus), HeLa-S3; details: HeLa-S3, no virus, incubated for 4 days
HeLa (Ohio strain)cells = experiment: Cytotoxicity (MTT, without virus), HeLa(Ohio); details: HeLa(Ohio), no virus, incubated for 4 days

Compound | IC50 Polio 1 [1] [µg/mL] | IC50 Echo 11 [2] [µg/mL] | IC50 CA7 [3] [µg/mL] | IC50 CB4 [4] [µg/mL] | IC50 HRV1B [5] [µg/mL] | IC50 HRV2 (HRV 2 (HGP)) [µg/mL] | IC50 HRV89 (HRV 89 (41617-Gallo)) [µg/mL] | Cytotoxicity CC50 HeLa (HeLa cells) [µg/mL] | Cytotoxicity CC50 HeLa-S3 (HeLa-S3 cells) [µg/mL] | Cytotoxicity CC50 HeLa(Ohio) (HeLa (Ohio strain)cells) [µg/mL]
Cc1cc2c(c(C)c1OCC(C)C)c(=O)cc(-c1ccccc1)n2C [Compound A285] | 0.69 (≈ 2.06 µM) | 0.2 (≈ 0.596 µM) | 3.1 (≈ 9.24 µM) | 1.9 (≈ 5.66 µM) | 0.68 (≈ 2.03 µM) | 0.18 (≈ 0.537 µM) | 0.46 (≈ 1.37 µM) | >4 | >4 | >4
Cc1cc2c(c(C)c1OCC(C)C)c(=O)c(C)c(-c1ccccc1)n2C [Compound A286] | 1.3 (≈ 3.72 µM) | 0.57 (≈ 1.63 µM) | >5 | 1.4 (≈ 4.01 µM) | 0.87 (≈ 2.49 µM) | 0.23 (≈ 0.658 µM) | 0.61 (≈ 1.75 µM) | >5 | >5 | >5
CCn1c(-c2ccccn2)cc(=O)c2cc(C(C)C)ccc21 [Compound A296] | 5.1 (≈ 17.4 µM) | 1.7 (≈ 5.81 µM) | 20 (≈ 68.4 µM) | 17 (≈ 58.1 µM) | 4.5 (≈ 15.4 µM) | 2.0 (≈ 6.84 µM) | 4.8 (≈ 16.4 µM) | 75 | >100 | 68
CC(C)c1ccc2c(c1)c(=O)cc(-c1ccco1)n2C [Compound A303] | 1.4 (≈ 5.24 µM) | 0.83 (≈ 3.1 µM) | 6.5 (≈ 24.3 µM) | 3.6 (≈ 13.5 µM) | 1.4 (≈ 5.24 µM) | 0.97 (≈ 3.63 µM) | 1.9 (≈ 7.11 µM) | >20 | >20 | >20
CC(C)c1ccc2c(c1)c(=O)cc(-c1ccn(C)c1)n2C [Compound A306] | 0.83 (≈ 2.96 µM) | 0.49 (≈ 1.75 µM) | 2.9 (≈ 10.3 µM) | 2.1 (≈ 7.49 µM) | 0.89 (≈ 3.17 µM) | 0.73 (≈ 2.6 µM) | 0.88 (≈ 3.14 µM) | 14 | 26 | 25
CCn1c(-c2ccn(C)c2)cc(=O)c2cc(C(C)C)ccc21 [Compound A307] | 0.79 (≈ 2.68 µM) | 0.34 (≈ 1.15 µM) | 1.9 (≈ 6.45 µM) | 1.3 (≈ 4.42 µM) | 0.83 (≈ 2.82 µM) | 0.39 (≈ 1.32 µM) | 0.86 (≈ 2.92 µM) | >20 | >20 | 18
CC(C)c1ccc2c(c1)c(=O)cc(-c1cccs1)n2C [Compound A308] | 0.87 (≈ 3.07 µM) | 0.31 (≈ 1.09 µM) | 3.9 (≈ 13.8 µM) | 1.6 (≈ 5.65 µM) | 0.81 (≈ 2.86 µM) | 0.36 (≈ 1.27 µM) | 0.94 (≈ 3.32 µM) | 11 | 16 | 11
